# Data from ChEMBL document CHEMBL3132769, “Fragment growing to retain or alter the selectivity of anchored kinase hinge-binding fragments” (Medchemcomm, 2014).
# Assays:
# [1] = target: Protein kinase C beta type (Homo sapiens) (UniProt P05771); assay: Inhibition of human full length PKC beta2 expressed in baculovirus assessed as substrate phosphorylation using fluorescence-labelled peptides as substrate at 420 uM after 90 mins by microfluidic peptide phosphorylation assay
# [2] = target: Fibroblast growth factor receptor 4 (Homo sapiens) (UniProt P22455); assay: Inhibition of human FGFR4 catalytic domain expressed in baculovirus assessed as substrate phosphorylation using fluorescence-labelled peptides as substrate at 420 uM after 90 mins by microfluidic peptide phosphorylation assay
# [3] = target: Aurora kinase B (Homo sapiens) (UniProt Q96GD4); assay: Inhibition of human full length AurB expressed in baculovirus assessed as substrate phosphorylation using fluorescence-labelled peptides as substrate at […] after 90 mins by microfluidic peptide phosphorylation assay
# [4] = target: RAF proto-oncogene serine/threonine-protein kinase (Homo sapiens) (UniProt P04049); assay: Inhibition of human truncated c-Raf expressed in baculovirus assessed as substrate phosphorylation using fluorescence-labelled peptides as substrate at […] after 90 mins by microfluidic peptide phosphorylation assay
# [5] = target: Proto-oncogene tyrosine-protein kinase Src (Homo sapiens) (UniProt P12931); assay: Inhibition of human full length SRC expressed in baculovirus assessed as substrate phosphorylation using fluorescence-labelled peptides as substrate at 0.1 uM after 90 mins by microfluidic peptide phosphorylation assay
# [6] = target: Serine/threonine-protein kinase PAK 2 (Homo sapiens) (UniProt Q13177); assay: Inhibition of human truncated PAK2 expressed in Escherichia coli cell assessed as substrate phosphorylation using fluorescence-labelled peptides as substrate at 9 uM after 90 mins by microfluidic peptide phosphorylation assay
# [7] = target: Serine/threonine-protein kinase pim-1 (Homo sapiens) (UniProt P11309); assay: Inhibition of human full length PIM1 expressed in baculovirus assessed as substrate phosphorylation using fluorescence-labelled peptides as substrate at 9 uM after 90 mins by microfluidic peptide phosphorylation assay
# [8] = target: Dual specificity tyrosine-phosphorylation-regulated kinase 1A (Rattus norvegicus) (UniProt Q63470); assay: Inhibition of rat full length DYRK1a expressed in Escherichia coli cell assessed as substrate phosphorylation using fluorescence-labelled peptides as substrate at 70 uM after 90 mins by microfluidic peptide phosphorylation assay
# [9] = target: T1, Protein kinase C zeta type (Homo sapiens) (UniProt Q05513); assay: Inhibition of human full length PKC zeta expressed in baculovirus assessed as substrate phosphorylation using fluorescence-labelled peptides as substrate at 70 uM after 90 mins by microfluidic peptide phosphorylation assay
# T1 sequence (whole entry): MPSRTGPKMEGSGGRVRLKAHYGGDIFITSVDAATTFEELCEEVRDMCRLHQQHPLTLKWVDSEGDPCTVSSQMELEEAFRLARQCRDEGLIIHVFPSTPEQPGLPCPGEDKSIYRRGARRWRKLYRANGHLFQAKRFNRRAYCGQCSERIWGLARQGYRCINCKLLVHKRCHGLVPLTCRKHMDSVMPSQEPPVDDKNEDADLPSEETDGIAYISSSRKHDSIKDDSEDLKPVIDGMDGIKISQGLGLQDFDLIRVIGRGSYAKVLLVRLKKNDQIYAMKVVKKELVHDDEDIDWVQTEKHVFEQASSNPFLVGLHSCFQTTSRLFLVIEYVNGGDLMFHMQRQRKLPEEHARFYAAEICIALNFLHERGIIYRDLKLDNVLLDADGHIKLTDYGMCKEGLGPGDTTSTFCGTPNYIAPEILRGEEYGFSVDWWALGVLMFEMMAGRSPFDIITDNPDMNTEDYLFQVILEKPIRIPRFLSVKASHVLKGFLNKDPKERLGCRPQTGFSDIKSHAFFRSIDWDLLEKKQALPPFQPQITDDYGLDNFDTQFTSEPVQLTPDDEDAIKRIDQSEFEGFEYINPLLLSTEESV
# [10] = target: Cyclin-dependent kinase 2 (Homo sapiens) (UniProt P24941); assay: Inhibition of human full length CDK2 expressed in baculovirus assessed as substrate phosphorylation using fluorescence-labelled peptides as substrate at 95 uM after 90 mins by microfluidic peptide phosphorylation assay
# [11] = target: Serine/threonine-protein kinase Chk2 (Homo sapiens) (UniProt O96017); assay: Inhibition of human full length CHK2 expressed in baculovirus assessed as substrate phosphorylation using fluorescence-labelled peptides as substrate at 8 uM after 90 mins by microfluidic peptide phosphorylation assay
# [12] = target: Tyrosine-protein kinase Lck (Homo sapiens) (UniProt P06239); assay: Inhibition of human full length LCK expressed in baculovirus assessed as substrate phosphorylation using fluorescence-labelled peptides as substrate at 8 uM after 90 mins by microfluidic peptide phosphorylation assay
# [13] = target: T2, Cytoplasmic tyrosine-protein kinase BMX (Homo sapiens) (UniProt P51813); assay: Inhibition of human full length BMX expressed in baculovirus assessed as substrate phosphorylation using fluorescence-labelled peptides as substrate at 8 uM after 90 mins by microfluidic peptide phosphorylation assay
# T2 sequence (whole entry): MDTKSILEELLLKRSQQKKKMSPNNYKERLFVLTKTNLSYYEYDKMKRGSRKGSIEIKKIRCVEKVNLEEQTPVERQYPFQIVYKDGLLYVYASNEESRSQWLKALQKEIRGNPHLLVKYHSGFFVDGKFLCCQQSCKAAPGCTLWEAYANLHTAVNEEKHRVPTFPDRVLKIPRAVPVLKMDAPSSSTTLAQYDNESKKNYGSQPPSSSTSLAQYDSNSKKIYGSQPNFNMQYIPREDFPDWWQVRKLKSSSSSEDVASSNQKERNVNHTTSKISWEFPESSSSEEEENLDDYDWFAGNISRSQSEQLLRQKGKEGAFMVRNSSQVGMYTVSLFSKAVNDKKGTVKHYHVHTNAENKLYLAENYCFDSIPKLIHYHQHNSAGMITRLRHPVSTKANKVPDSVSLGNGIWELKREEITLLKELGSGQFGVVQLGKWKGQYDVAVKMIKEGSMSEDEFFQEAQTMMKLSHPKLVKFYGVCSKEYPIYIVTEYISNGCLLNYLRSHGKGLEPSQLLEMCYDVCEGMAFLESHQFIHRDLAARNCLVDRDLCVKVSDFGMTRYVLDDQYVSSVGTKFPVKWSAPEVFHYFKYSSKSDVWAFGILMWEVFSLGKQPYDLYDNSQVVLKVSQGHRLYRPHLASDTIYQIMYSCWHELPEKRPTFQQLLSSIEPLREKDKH
# [14] = target: Tyrosine-protein kinase BTK (Homo sapiens) (UniProt Q06187); assay: Inhibition of human full length BTK expressed in baculovirus assessed as substrate phosphorylation using fluorescence-labelled peptides as substrate at 2 uM after 90 mins by microfluidic peptide phosphorylation assay
# Chain of Tyrosine-protein kinase BTK (Homo sapiens) (Q06187 whole entry): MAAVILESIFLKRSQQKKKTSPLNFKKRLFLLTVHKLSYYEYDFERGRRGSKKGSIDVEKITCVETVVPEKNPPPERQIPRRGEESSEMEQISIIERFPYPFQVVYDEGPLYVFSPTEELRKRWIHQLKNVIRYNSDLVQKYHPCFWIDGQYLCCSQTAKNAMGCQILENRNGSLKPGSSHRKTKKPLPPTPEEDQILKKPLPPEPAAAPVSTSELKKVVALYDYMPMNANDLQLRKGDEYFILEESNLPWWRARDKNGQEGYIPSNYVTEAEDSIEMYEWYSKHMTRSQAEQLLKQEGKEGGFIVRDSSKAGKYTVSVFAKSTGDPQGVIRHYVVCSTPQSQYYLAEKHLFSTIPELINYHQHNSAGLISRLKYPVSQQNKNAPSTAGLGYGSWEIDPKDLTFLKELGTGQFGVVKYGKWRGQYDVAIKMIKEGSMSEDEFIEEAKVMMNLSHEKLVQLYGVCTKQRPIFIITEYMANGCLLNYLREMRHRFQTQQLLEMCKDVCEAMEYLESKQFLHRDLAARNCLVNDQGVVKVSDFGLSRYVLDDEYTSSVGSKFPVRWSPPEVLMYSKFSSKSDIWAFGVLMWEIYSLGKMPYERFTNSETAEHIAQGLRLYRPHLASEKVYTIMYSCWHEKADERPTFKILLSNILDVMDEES
# Chain of Serine/threonine-protein kinase PAK 2 (Homo sapiens) (Q13177 whole entry, the tested form may be a part): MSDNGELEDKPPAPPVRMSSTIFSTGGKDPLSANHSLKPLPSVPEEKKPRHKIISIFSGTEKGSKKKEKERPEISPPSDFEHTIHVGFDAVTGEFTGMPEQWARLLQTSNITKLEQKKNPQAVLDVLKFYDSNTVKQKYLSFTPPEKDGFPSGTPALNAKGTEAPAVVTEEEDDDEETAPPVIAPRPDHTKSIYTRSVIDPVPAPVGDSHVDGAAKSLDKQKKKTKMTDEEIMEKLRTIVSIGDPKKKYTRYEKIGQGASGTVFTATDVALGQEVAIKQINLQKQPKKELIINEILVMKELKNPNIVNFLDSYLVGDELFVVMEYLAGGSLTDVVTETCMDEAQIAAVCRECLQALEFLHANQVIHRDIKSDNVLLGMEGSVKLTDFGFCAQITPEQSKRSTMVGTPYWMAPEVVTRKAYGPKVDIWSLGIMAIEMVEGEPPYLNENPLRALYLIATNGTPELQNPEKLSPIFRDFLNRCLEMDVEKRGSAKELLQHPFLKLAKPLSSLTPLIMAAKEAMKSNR
# Chain of Proto-oncogene tyrosine-protein kinase Src (Homo sapiens) (P12931 2-536 limits assumed): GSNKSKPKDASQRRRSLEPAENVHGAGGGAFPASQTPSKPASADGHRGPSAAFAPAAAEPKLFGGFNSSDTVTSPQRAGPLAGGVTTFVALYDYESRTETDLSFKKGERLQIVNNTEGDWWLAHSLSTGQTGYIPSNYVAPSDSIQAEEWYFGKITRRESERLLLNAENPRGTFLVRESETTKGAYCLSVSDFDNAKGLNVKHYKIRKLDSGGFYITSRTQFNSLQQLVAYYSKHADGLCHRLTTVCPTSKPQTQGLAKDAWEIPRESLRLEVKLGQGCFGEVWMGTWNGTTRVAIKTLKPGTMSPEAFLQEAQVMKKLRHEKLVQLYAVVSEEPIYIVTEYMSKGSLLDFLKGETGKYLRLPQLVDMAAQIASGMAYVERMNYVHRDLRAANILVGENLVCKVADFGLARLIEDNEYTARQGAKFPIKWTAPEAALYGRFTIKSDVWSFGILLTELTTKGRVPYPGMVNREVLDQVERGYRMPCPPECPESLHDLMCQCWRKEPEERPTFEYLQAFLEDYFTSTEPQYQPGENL
# Chain of RAF proto-oncogene serine/threonine-protein kinase (Homo sapiens) (P04049 whole entry, the tested form may be a part): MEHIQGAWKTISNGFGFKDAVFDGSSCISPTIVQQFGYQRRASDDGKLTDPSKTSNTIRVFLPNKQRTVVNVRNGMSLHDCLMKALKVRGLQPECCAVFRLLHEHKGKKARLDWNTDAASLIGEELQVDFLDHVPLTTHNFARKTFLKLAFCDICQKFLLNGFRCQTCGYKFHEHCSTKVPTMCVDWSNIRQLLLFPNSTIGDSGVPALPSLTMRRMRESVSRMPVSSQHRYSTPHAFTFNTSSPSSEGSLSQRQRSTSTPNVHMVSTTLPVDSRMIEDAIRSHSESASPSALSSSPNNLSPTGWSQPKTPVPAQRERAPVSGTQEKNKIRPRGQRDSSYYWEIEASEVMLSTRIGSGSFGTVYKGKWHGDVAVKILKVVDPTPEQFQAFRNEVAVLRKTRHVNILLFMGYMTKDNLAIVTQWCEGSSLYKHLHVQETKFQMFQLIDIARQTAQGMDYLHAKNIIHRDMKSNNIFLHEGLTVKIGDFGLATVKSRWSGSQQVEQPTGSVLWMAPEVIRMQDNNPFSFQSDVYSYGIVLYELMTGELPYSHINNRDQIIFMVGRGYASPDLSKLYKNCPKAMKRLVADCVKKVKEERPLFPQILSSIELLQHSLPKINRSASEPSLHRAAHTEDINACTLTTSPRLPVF
# Chain of Tyrosine-protein kinase Lck (Homo sapiens) (P06239 2-509 limits assumed): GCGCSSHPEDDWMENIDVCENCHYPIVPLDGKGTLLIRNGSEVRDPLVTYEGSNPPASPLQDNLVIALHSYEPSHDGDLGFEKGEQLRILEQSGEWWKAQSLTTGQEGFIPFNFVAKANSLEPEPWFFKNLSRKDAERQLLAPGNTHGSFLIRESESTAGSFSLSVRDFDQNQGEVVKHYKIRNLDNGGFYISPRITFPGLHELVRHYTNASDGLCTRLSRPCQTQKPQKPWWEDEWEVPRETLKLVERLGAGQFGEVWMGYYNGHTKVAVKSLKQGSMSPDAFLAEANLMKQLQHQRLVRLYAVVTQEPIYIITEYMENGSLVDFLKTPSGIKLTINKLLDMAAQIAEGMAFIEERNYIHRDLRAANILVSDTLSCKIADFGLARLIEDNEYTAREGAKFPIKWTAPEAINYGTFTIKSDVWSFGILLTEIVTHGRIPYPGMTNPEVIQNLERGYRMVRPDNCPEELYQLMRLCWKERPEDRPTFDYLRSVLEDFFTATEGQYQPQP
# Chain of Protein kinase C beta type (Homo sapiens) (P05771 2-671 limits assumed): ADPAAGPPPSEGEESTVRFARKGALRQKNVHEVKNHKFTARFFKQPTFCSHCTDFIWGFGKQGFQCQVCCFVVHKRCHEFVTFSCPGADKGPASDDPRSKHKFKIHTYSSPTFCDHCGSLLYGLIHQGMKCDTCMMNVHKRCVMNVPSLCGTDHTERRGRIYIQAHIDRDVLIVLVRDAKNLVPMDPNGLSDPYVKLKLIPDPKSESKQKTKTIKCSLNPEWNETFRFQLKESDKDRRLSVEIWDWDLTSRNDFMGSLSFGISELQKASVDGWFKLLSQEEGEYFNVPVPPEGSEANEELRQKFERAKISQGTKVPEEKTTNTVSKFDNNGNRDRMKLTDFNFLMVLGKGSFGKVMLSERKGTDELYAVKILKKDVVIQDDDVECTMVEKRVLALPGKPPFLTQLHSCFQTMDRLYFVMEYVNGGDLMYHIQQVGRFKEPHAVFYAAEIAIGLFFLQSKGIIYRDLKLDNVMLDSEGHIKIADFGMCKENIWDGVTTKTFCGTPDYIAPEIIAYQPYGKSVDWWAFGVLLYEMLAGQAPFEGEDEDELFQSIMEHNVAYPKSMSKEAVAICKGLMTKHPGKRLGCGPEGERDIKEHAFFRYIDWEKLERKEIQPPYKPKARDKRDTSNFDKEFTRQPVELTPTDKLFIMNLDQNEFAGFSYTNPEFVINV
# Chain of Aurora kinase B (Homo sapiens) (Q96GD4 whole entry, the tested form may be a part): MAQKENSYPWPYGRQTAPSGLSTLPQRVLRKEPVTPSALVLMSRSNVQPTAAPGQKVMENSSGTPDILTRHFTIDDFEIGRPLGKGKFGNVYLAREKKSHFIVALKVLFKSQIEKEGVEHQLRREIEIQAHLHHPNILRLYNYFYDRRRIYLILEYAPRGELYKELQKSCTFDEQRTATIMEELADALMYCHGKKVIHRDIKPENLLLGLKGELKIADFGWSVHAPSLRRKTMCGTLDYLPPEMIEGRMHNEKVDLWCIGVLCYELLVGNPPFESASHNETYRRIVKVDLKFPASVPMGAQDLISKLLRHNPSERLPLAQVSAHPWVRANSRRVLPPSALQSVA
# Chain of Serine/threonine-protein kinase Chk2 (Homo sapiens) (O96017 whole entry): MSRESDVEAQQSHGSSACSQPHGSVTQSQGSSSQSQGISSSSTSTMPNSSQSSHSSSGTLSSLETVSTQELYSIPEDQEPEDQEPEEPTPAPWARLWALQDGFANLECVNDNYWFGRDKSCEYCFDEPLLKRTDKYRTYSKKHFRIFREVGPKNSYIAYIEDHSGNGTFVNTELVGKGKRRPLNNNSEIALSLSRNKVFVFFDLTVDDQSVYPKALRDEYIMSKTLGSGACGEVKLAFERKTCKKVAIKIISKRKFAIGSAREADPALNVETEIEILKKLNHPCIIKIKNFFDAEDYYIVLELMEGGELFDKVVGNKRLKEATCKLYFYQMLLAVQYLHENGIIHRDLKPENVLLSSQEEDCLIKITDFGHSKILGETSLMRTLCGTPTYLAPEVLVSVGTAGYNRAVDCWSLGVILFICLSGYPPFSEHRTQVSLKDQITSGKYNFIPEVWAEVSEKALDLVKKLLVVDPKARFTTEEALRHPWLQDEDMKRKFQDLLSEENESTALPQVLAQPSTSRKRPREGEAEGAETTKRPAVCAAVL
# Chain of Serine/threonine-protein kinase pim-1 (Homo sapiens) (P11309 whole entry, looked up): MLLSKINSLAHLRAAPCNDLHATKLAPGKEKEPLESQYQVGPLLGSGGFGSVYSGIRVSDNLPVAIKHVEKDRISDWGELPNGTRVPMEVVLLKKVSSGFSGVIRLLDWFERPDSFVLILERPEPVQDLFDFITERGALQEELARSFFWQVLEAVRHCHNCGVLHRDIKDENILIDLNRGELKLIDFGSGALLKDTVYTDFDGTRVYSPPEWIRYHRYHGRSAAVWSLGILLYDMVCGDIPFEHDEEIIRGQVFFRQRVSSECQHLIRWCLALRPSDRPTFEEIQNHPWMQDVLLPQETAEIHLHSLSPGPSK
structure (smiles),measurement,setting,value
c1nc(N2CCOCC2)c2nc[nH]c2n1,inhibition,[1],38%
same,inhibition,[2],75.5%
COC(=O)c1cnc(Nc2cnc(C#N)cn2)cc1NCC1CCNCC1,inhibition,[3],4%
same,inhibition,[4],7%
C[C@H](CN(C)C)Oc1nc(Nc2cc3cccc(Cl)c3cn2)cnc1C#N,inhibition,[5],3%
NCC1CN(c2ncnc3[nH]c4cnccc4c23)CCO1 (centres undefined),inhibition,[6],3%
same,inhibition,[7],36.5%
CNCc1ccc(-c2ncnc3[nH]cnc23)cc1,inhibition,[8],61%
same,inhibition,[9],0%
NCCc1ccc(-c2ncnc3[nH]cnc23)cc1,inhibition,[10],39.5%
NCC1CCN(c2ncnc3[nH]ccc23)CC1,inhibition,[11],0%
same,inhibition,[12],48.5%
same,inhibition,[13],42.5%
NC1CCN(c2ncnc3[nH]ccc23)CC1,inhibition,[14],0.5%
